ChEMBL document CHEMBL5036315, “Synthesis, Structure-Activity Relationships, and In Vivo Evaluation of Novel Tetrahydropyran-Based Thiodisaccharide Mimics as Galectin-3 Inhibitors” (J Med Chem, 2021)
Converted amounts (≈) assume the structure as drawn.

Assays:
[1] = Oral bioavailability in C57BL/6 mouse at 30 mg/kg measured upto 24 hrs; type: ADME, organism-based; conditions: in vivo
[2] = Cmax in C57BL/6 mouse at 30 mg/kg, po measured upto 24 hrs; type: ADME, organism-based; set-up: route oral, dose 30 mg/kg, time <=24; conditions: in vivo
[3] = AUC in C57BL/6 mouse at 30 mg/kg, po measured upto 24 hrs; type: ADME, organism-based; set-up: route oral, dose 30 mg/kg, time <=24; conditions: in vivo
[4] = Metabolic stability in human liver microsomes assessed as compound remaining at 0.5 uM incubated for10 mins in presence of NADPH by LC-MS/MS analysis; type: ADME, Microsome; conditions: read-out: Stability
[5] = Metabolic stability in mouse liver microsomes assessed as compound remaining at 0.5 uM incubated for10 mins in presence of NADPH by LC-MS/MS analysis; type: ADME, Microsome; conditions: read-out: Stability
[6] = Clearance in C57BL/6 mouse at 2 mg/kg, iv measured upto 24 hrs; type: ADME, organism-based; conditions: in vivo
[7] = Volume of distribution at steady state in C57BL/6 mouse at 2 mg/kg, iv measured upto 24 hrs; type: ADME, organism-based; conditions: in vivo
[8] = Half life in C57BL/6 mouse at 2 mg/kg, iv measured upto 24 hrs; type: ADME, organism-based; conditions: in vivo
[9] = Aqueous solubility of the compound at pH 1; type: physicochemical; conditions: aqueous solution
[10] = Aqueous solubility of the compound at pH 7.4; type: physicochemical; conditions: aqueous solution
[11] = Bioavailability in C57BL/6 mouse at 30 mg/kg, sc measured upto 24 hrs; type: ADME, organism-based; conditions: in vivo
[12] = Cmax in C57BL/6 mouse at 30 mg/kg, sc measured upto 24 hrs; type: ADME, organism-based; set-up: route subcutaneous, dose 30 mg/kg, time <=24; conditions: in vivo
[13] = AUC in C57BL/6 mouse at 30 mg/kg, sc measured upto 24 hrs; type: ADME, organism-based; set-up: route subcutaneous, dose 30 mg/kg, time <=24; conditions: in vivo

| Compound | bioavailability [1] [%] | Cmax [2] [nM] | AUC at 24 h [3] [µM·h] | remaining at 10 min, 0.5 µM [4] [%] | remaining at 10 min, 0.5 µM [5] [%] | clearance [6] [mL/min/kg] | Vss [7] [L/kg] | half-life [8] [h] | solubility [9] [µg/mL] | solubility [10] [µg/mL] | bioavailability ([11]; C57BL/6, mouse) [%] | Cmax [12] [nM] | AUC at 24 h ([13]; C57BL/6, mouse) [µM·h] | F ([11]; mouse, 30 mg/kg, 24 h) [%] | AUC ([13]; mouse, 24 h) [µM·h] |
| --- | --- | --- | --- | --- | --- | --- | --- | --- | --- | --- | --- | --- | --- | --- | --- |
| CO[C@@H]1[C@@H](n2cc(-c3cc(F)c(F)c(F)c3)nn2)[C@@H](O)[C@@H](CO)O[C@H]1S[C@@H]1COC[C@H](n2cc(-c3cccc(O)c3)nn2)[C@H]1O | 0.3 | 10 | 0.04 | 98 | 92 | 69 | 1.6 | 1.2 | – | – | – | – | – | – | – |
| COc1ncc(-c2cn([C@H]3COC[C@@H](S[C@@H]4O[C@H](CO)[C@H](O)[C@H](n5cc(-c6cc(F)c(F)c(F)c6)nn5)[C@H]4OC)[C@@H]3O)nn2)cn1 | – | – | – | – | – | – | – | – | < 1 | – | – | – | – | – | – |
| COc1cnc(-c2cn([C@H]3COC[C@@H](S[C@@H]4O[C@H](CO)[C@H](O)[C@H](n5cc(-c6cc(F)c(F)c(F)c6)nn5)[C@H]4OC)[C@@H]3O)nn2)nc1 | – | – | – | – | – | – | – | – | < 1 | < 1 | – | – | – | – | – |
| CO[C@@H]1[C@@H](n2cc(-c3cc(F)c(F)c(F)c3)nn2)[C@@H](O)[C@@H](CO)O[C@H]1S[C@@H]1COC[C@H](n2cc(-c3nccs3)nn2)[C@H]1O | – | – | – | – | – | – | – | – | < 1 | – | – | – | – | – | – |
| OC[C@H]1O[C@@H](S[C@@H]2O[C@H](CO)[C@H](O)[C@H](n3cc(-c4cccc(F)c4)nn3)[C@H]2O)[C@H](O)[C@@H](n2cc(-c3cccc(F)c3)nn2)[C@H]1O [OLITIGALTIN] | 1 | 300 | 0.3 | – | – | 30 | 0.7 | 1.6 | – | – | 66 | 10300 | 17 | – | – |
| CO[C@@H]1[C@@H](n2cc(-c3cc(F)c(F)c(F)c3)nn2)[C@@H](O)[C@@H](CO)O[C@H]1S[C@@H]1COC[C@H](n2cc(-c3cccc(F)c3)nn2)[C@H]1O | 2 | 200 | 0.3 | 78 | 72 | 59 | 3.6 | 1.9 | – | – | – | – | – | – | – |
| CO[C@@H]1[C@@H](n2cc(-c3cc(F)c(F)c(F)c3)nn2)[C@@H](O)[C@@H](CO)O[C@H]1S[C@@H]1COC[C@H](n2cc(-c3cncnc3)nn2)[C@H]1O | – | – | – | 45 | 89 | – | 2.4 | 1.4 | 6 (≈ 9.42 µM) | 3 (≈ 4.71 µM) | – | 5900 | – | 100 | 49 |
